Assay results published in patent US20070027088A1 (priority 2003, published 2007).
Entries after “also recorded” stand apart in the source; their conditions may differ. Where a SMILES comes first, the peptide text is derived from it. [ ]: non-standard residue; d: D form.

Key:
[1] = system: human PBMCs stimulated with SEB; format: cell-based
[2] = system: superantigen shock in Balb/c mice (SEB); details: mouse, in vivo; for % SURVIVAL / SURVIVORS/INJECTED: ip
[3] = system: IL-2 RNA; details: cited from earlier work
[4] = system: bacterial toxins; details: mouse, in vivo; cited from earlier work

CSCC[C@@H](NC(=O)[C@H](N)CS)C(=O)N[C@H](Cc1ccc(O)cc1)C(=O)O [CMY*] (H-[dC]-[dM]-[dY]-OH)
inhibition of SEB proliferation (words) [1]: significantly greater inhibitory effects than the control 12-mer peptide or their respective L-conformation peptides; also recorded: most effective in blocking superantigen activity
protection against superantigen shock [2]: provided some protection against superantigen-induced shock
% SURVIVAL [2]: 33%
SURVIVORS/INJECTED [2]: 2/6

CSCC[C@@H](NC(=O)[C@H](N)Cc1ccc(O)cc1)C(=O)N[C@H](CS)C(=O)O [YMC*] (H-[dY]-[dM]-[dC]-OH)
inhibition of SEB proliferation (words) [1]: significantly greater inhibitory effects than the control 12-mer peptide or their respective L-conformation peptides; also recorded: most effective in blocking superantigen activity
protection against superantigen shock [2]: quite effective in protecting mice against shock
% SURVIVAL [2]: 83%
SURVIVORS/INJECTED [2]: 5/6

AAA [reference compound]
inhibition of blastogenesis [1]: not effective

AMY
inhibition of blastogenesis [1]: effective in inhibiting blastogenesis of the toxins

AMYGGVTEHEGN [SEQ ID NO: 8]
inhibitory activity of alanine substitution constructs [1]: significant loss of the inhibitory properties

CAY
inhibition of blastogenesis [1]: effective in inhibiting blastogenesis of the toxins

CAYGGVTEHEGN [SEQ ID NO: 9]
inhibitory activity of alanine substitution constructs [1]: significant loss of the inhibitory properties

CMAGGVTEHEGN [SEQ ID NO: 10]
inhibitory activity of alanine substitution constructs [1]: significant loss of the inhibitory properties; also recorded: complete loss of the inhibitory properties

CMYG
inhibition of proliferative effects of the toxin [1]: comparatively little effect in the inhibition of toxin regardless of concentration

CMYGGV
loss of inhibiting activity compared with original 12-mer peptide [1]: 52%

CMYGGVAEHEGN [A at 7]
inhibitory activity of alanine substitution constructs [1]: better inhibition of biological activity than the original 12-mer peptide

CMYGGVTAHEGN [A at 8]
inhibitory activity of alanine substitution constructs [1]: better inhibition of biological activity than the original 12-mer peptide

CMYGGVTEHE
loss of inhibiting activity compared with original 12-mer peptide [1]: 54%

CMYGGVTEHEG
loss of inhibiting activity compared with original 12-mer peptide [1]: 18%

CMYGK
inhibition of SEB proliferation (words) [1]: comparable to that of the original 12 amino acid peptide; also recorded: more effectively than the 12-mer peptide 6343

CMYKK
inhibition of SEB proliferation (words) [1]: comparable and at high concentrations better than the original 12-mer peptide; also recorded: more effectively than the 12-mer peptide 6343

CYM
inhibition of blastogenesis [1]: effective in inhibiting blastogenesis of the toxins

EHEGNCMYGGVT [6343S, reference compound]
inhibition of SEB proliferation [1]: less than 20%
inhibition of SEB proliferation (words) [1]: minimal effect on bacterial toxin proliferation

MYC
inhibition of blastogenesis [1]: effective in inhibiting blastogenesis of the toxins

MYGGVTEHEGN
loss of inhibiting activity compared with original 12-mer peptide [1]: approximately 30%

TEHEGN
loss of inhibiting activity compared with original 12-mer peptide [1]: 48%

TTT [reference compound]
inhibition of blastogenesis [1]: not effective

YGGVTEHEGN
loss of inhibiting activity compared with original 12-mer peptide [1]: approximately 50%

YNKKKATVQELD
inhibition of expression of IL-2 RNA [3]: 18-40 fold
rescue from lethal effects of bacterial toxins [4]: rescues mice from the lethal effects of bacterial toxins

YYY [reference compound]
inhibition of blastogenesis [1]: not inhibitory

acetylated CMY
inhibition of SEB proliferation (words) [1]: did not significantly change the inhibitory effects of CMY

cmy-NH2
inhibition of blastogenesis [1]: effective in inhibiting blastogenesis of the toxins

cmy-OH
inhibition of blastogenesis [1]: effective in inhibiting blastogenesis of the toxins
